Series [1] has as its target T1, human glucocorticoid receptors (Homo sapiens, UniProt P04150).
T1 construct: endogenous in cells; host or cells: HeLa S3 (human cervix carcinoma) cells
T1 sequence (P04150 1-777): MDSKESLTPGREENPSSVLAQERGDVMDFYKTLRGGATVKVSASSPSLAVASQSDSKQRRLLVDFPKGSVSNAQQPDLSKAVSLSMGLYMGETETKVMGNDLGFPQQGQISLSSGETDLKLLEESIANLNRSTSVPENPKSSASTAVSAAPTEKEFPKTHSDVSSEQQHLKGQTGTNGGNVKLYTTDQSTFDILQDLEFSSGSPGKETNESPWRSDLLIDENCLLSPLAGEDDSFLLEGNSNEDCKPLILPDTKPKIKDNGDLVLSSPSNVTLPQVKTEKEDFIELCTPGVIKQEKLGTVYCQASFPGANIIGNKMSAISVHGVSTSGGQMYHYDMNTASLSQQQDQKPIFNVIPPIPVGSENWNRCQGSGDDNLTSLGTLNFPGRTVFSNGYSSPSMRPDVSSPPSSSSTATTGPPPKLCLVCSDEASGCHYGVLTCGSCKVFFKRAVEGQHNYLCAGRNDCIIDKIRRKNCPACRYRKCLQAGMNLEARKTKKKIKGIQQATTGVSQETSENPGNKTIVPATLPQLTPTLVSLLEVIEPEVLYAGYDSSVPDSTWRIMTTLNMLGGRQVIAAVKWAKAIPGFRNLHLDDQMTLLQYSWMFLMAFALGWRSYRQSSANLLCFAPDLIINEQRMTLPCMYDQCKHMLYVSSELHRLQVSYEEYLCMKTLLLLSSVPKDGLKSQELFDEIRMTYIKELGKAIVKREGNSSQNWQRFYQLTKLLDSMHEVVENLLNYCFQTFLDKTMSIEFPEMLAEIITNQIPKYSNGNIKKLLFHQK
Nature of the series: glucocorticoid receptor (GR) binding assay, [3H]Dexamethasone, HeLa S3 cells. An excerpt: Biochemical assay results as presented herein are reflected as the percent inhibition of specific binding or activity of a compound. The assay is described in Cidlowski, J. A. and Cidlowski, N. B., Regulation of glucocorticoid receptors by glucocorticoids in cultured HeLa S3 cells. Endocrinology 109: 1975-1982, 1981, the contents of which are incorporated herein by way of reference. This assay specifically measures the ability of active glucocorticoids in glucocorticoid receptor downregulation.
This assay measures binding of [^3H]Dexamethasone to human glucocorticoid receptors. HeLa S3 cells are suspended in modified HEPES buffer, pH 7.2, using standard techniques.
The cells (1×10^6) are incubated with 6 nM [^3H]Dexamethasone for 120 minutes at 25° C. Non-specific binding is estimated in the presence of 20 μM Dexamethasone. Membranes are filtered and washed three times and the filters are counted to determine [^3H]Dexamethasone specifically bound. Compounds are screened at 10 μM for activity.

For a further series, the system named is Phosphodiesterase PDE4. As to the kind of experiment: phosphodiesterase PDE4 enzyme assay. It is filed as biochemical, human. The conditions noted are these: 100 μg/ml. On the procedure: Based on the results shown in Table 6, it follows that the combined fraction (WG-I-5AB+WG-I-5C) is effective in binding to the glucocorticoid receptor (GR) site. […] This inhibitory effect implies that the combined fraction (WG-I-5AB+WG-I-5C) has a bronchodilatory effect. For the PDE4 test, PDE4 which has been partially purified from human U-937 pronocytic cells is used. The test compound and/or vehicle is incubated with 0.2 μg enzyme and 1 μM cAMP containing 0.01 μM [^3H]cAMP in Tris buffer pH 7.5 for 20 minutes at 30° C. The reaction is terminated by boiling for 2 minutes and the resulting AMP is converted to adenosine by addition of 10 mg/ml snake venom necleotidase and further incubation at 30° C. for 10 minutes. Unhydrolyzed cAMP is bound to AGI-X2 resin, and remaining [^3H]adenosine in the aqueous phase is quantified by scintillation counting. Compounds are screened at 100 μM. IBMX (3-isobutyl-1-methylxanthine) is used as standard reference agent.

Series [2] in a line: Cytotoxicity, Mediator Release, Con A-Induced (AlamarBlue). Conditions: human, pH 7.4. It is filed as cell-based, human. On the procedure: (§1) For the ConA-Induced mediator release/cytotoxicity test, the test compound and/or vehicle is incubated with a suspension of human peripheral blood mononuclear leukocytes (PBMNL, 1×10^5/well) in the presence of Concanavalin A (Con A, 20 μg/ml) in RPMI buffer (pH 7.4) at 37° C. overnight in 5% CO2. AlamarBlue reagent is added and the cells are incubated at 37° C. for 16 hours. Living cells take up AlamarBlue and emit fluorescence. Fluorescence intensity is measured using a SpectraFluor Plus plate reader with excitation at 530 nm and emission at 590 nm. A decrease of 50% or more (50%) in fluorescence intensity relative to the vehicle treated controls indicates significant cytotoxicity. […] Dexamethasone is used as standard reference agent.
Background: Alamar Blue is a resazurin reagent that responds to reducing activity.

The test system of series [3] is human peripheral blood mononuclear leukocytes (PBMNL). Described as above. It counts as cell-based. As to the method: as §1
Series [4] deals with NF-κB transcription factor. Nature of the series: Transcription Response, NF-κB (Jurkat lacZ reporter). It is filed as cell-based, human. An excerpt:
The assay is described in Lenardo M J, Baltimaore D. Lenardo M J, Baltimaore D, NF-κB: A pleiotropic mediator of inducible and tissue specific gene control. Cell. 58: 227-229, 1989, the contents of which are incorporated herein by way of reference.
Human T lymphocytic Jurkat cells, transfected with a response element-lacZ reporter in which transcription of the β-galactosidase gene is directed by the binding site for the NF-κB transcription factor, are used. Test compound and/or vehicle are incubated with the cells (1.5×10^6/ml) in the presence of 0.5 μM A23187 and 50 ng/ml PMA (phorbol 12-myristate 13-acetate) in RPMI-1640 pH 7.4 at 37° C. for 4 hours. Test compound-induced β-galactosidase activity is determined by the conversion of FDG (fluorescein di-β-D-galactopyranoside) to fluorescein. Fluorescence intensity is read on SpectroFluor Plus plate reader. […]

≈ marks a conversion by molar mass, not a printed value. Some results are limits rather than exact numbers.

A word on the IC50: it is the concentration that gives 50% inhibition. The Ki is a dissociation constant, usually derived from enzyme kinetics or from competition with a known ligand. Low values mean a stronger hold on the target, high ones a looser hold on the target. Broadly, the inhibition is the change of the read-out against control, counted positive when it falls. As to `Cc1coc2c1C[C@H]1[C@H](C)C=CC(=O)[C@]1(C)C2` (relative stereo) [compound 1, 4,4a,5,9-tetrahydro-3,5,8a-trimethylnaptho[2,3-b]furan-8-one], the IC50 in series [1] turned out to be 50.3 µM; in series [2], 58.5 µM; in series [4] (Homo sapiens, Jurkat, read-out: IC50 inhibition of NF-κB transcription factor), 15.6 µg/mL (≈ 67.7 µM). This compound also came in with a Ki in series [1] of 22.8 µM. Further, in series [1] (100 μM), the inhibition at 100 µM is 70%. Besides, in series [1] (100 μg/ml), the inhibition at 100 µg/mL is 104%. In series [1] (Hill coefficient), the “nH Glucocorticoid” value is given as 1.4. For the same compound, in the series on Phosphodiesterase PDE4, the “Inhibition (%) Phosphodiesterase PDE4” value amounted to 35%. Besides, the “cytotoxicity observed in mediator release bio-assays (in words)” value in series [3] is “Limited cytotoxicity”. Besides, the “ANT. Cytotoxicity, Mediator Release, Con A-Induced” value in series [3] (10 nM) is −1%; in series [3] (0.1 μM), 0%; in series [3] (1 μM) it was 18%; in series [3] (10 μM), 35%; in series [3] (100 μM), 53%. In addition, the “% RESPONSE Ant, Transcription Response, NF-κB” value in series [4] (0.1 μM) is reported as 0%; in series [4] (1 μM) it was 7%; in series [4] (10 μM), 27%; in series [4] (10 μM, fifth (last) step of the series), 5%; in series [4] (100 μM), 113%; in series [4] (100 μM, listed as compound of formula 1) it was > 100%.

The record behind these values is patent US8158165B2, “Preventative treatment and remission of allergic diseases” (CSIR, priority 2006, dated 2012).
